Measurements taken from ChEMBL document CHEMBL2385026, “Identification of C-2 hydroxyethyl imidazopyrrolopyridines as potent JAK1 inhibitors with favorable physicochemical properties and high selectivity over JAK2” (J Med Chem, 2013).
Converted amounts (≈) assume the structure as drawn.

How the values were obtained:
[1] = biological target: T1, Cytochrome P450 3A4 (Homo sapiens, UniProt P08684); test: Reversible inhibition of CYP3A4 in human liver microsomes using testosterone as substrate by LC/MS/MS analysis; assay type: ADME, Microsome
[2] = biological target: T2, Cytochrome P450 1A2 (Homo sapiens, UniProt P05177); test: Reversible inhibition of CYP1A2 in human liver microsomes using phenacetin as substrate by LC/MS/MS analysis; assay type: ADME, Microsome
T2 sequence (P05177 whole entry): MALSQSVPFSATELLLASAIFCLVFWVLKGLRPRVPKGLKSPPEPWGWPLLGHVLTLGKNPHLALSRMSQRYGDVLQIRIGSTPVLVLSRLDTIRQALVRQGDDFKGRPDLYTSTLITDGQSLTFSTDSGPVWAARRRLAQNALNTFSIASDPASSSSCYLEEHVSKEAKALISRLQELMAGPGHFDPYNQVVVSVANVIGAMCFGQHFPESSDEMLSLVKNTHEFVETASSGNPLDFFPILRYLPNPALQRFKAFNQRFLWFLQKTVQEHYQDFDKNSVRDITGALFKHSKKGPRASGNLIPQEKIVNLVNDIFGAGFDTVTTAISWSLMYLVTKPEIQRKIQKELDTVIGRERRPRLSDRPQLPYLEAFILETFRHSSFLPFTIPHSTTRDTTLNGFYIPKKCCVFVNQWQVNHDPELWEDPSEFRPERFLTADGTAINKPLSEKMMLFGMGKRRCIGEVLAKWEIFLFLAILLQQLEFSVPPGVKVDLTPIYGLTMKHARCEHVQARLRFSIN

[3] = biological target: T1, Cytochrome P450 3A4; test: Reversible inhibition of CYP3A4 in human liver microsomes using midazolam as substrate by LC/MS/MS analysis; assay type: ADME, Microsome
[4] = biological target: Tyrosine-protein kinase JAK3 (Homo sapiens, UniProt P52333)
[5] = test system: Canis familiaris; test: Oral bioavailability in Beagle dog at 2 mg/kg by LC/MS/MS analysis; assay type: ADME, organism-based, Canis lupus familiaris; conditions: in vivo
[6] = Oral bioavailability in Sprague-Dawley rat at 2 mg/kg by LC/MS/MS analysis; assay type: ADME, organism-based; conditions: Sprague-Dawley, in vivo
[7] = Cmax in Beagle dog at 2 mg/kg, po by LC/MS/MS analysis; assay type: ADME, organism-based, Canis lupus familiaris; parameters: dose 2 mg/kg, route oral; conditions: in vivo
[8] = AUC in Beagle dog at 2 mg/kg, po by LC/MS/MS analysis; assay type: ADME, organism-based, Canis lupus familiaris; parameters: dose 2 mg/kg, route oral; conditions: plasma
[9] = AUC in Sprague-Dawley rat at 2 mg/kg, po by LC/MS/MS analysis; assay type: ADME, organism-based; parameters: dose 2 mg/kg, route oral; conditions: plasma
[10] = Half life in Beagle dog at 0.4 mg/kg, iv by LC/MS/MS analysis; assay type: ADME, organism-based, Canis lupus familiaris; parameters: dose 0.4 mg/kg, route intravenous; conditions: in vivo
[11] = Half life in Sprague-Dawley rat at 0.4 mg/kg, iv by LC/MS/MS analysis; assay type: ADME, organism-based; parameters: dose 0.4 mg/kg, route intravenous; conditions: in vivo
[12] = Clearance in Beagle dog at 0.4 mg/kg, iv by LC/MS/MS analysis; assay type: ADME, organism-based, Canis lupus familiaris; parameters: dose 0.4 mg/kg, route intravenous; conditions: in vivo
[13] = Clearance in Sprague-Dawley rat at 0.4 mg/kg, iv by LC/MS/MS analysis; assay type: ADME, organism-based; parameters: dose 0.4 mg/kg, route intravenous; conditions: in vivo
[14] = Metabolic stability in monkey hepatocytes assessed as hepatic clearance; assay type: ADME, cell-based, Macaca mulatta, Liver, Hepatocyte; conditions: rhesus monkey
[15] = Metabolic stability in dog hepatocytes assessed as hepatic clearance; assay type: ADME, cell-based, Canis lupus familiaris, Liver, Hepatocyte
[16] = Metabolic stability in rat hepatocytes assessed as hepatic clearance; assay type: ADME, cell-based, Liver, Hepatocyte
[17] = Plasma protein binding in cynomolgus monkey; assay type: ADME, cell-free, Macaca fascicularis; conditions: read-out: PPB (converted)
[18] = Plasma protein binding in dog; assay type: ADME, cell-free, Canis lupus familiaris; conditions: read-out: PPB (converted)
[19] = Apparent permeability across basolateral to apical side in dog MDCK cells; assay type: ADME, cell-based, Canis lupus familiaris
[20] = Plasma protein binding in rat; assay type: ADME, cell-free; conditions: read-out: PPB (converted)
[21] = Thermodynamic solubility in aqueous buffer at pH 7.4; assay type: physicochemical; conditions: read-out: Therm_solubility
[22] = Thermodynamic solubility in aqueous buffer at pH 2; assay type: physicochemical; conditions: read-out: Therm_solubility
[23] = Hepatic clearance in human liver microsomes by LC/MS/MS analysis; assay type: ADME, Microsome
[24] = Hepatic clearance in human hepatocytes after 1 to 4 hrs by LC/MS/MS analysis; assay type: ADME, cell-based, Liver, Hepatocyte
[25] = Apparent permeability across apical to basolateral side in dog MDCK cells; assay type: ADME, cell-based, Canis lupus familiaris
[26] = Cmax in Sprague-Dawley rat at 2 mg/kg, po by LC/MS/MS analysis; assay type: ADME, organism-based; parameters: dose 2 mg/kg, route oral; conditions: in vivo
[27] = biological target: Cytochrome P450 2C19 (Homo sapiens, UniProt P33261)
[28] = biological target: Cytochrome P450 2D6 (Homo sapiens, UniProt P10635)
[29] = biological target: Cytochrome P450 2C9 (Homo sapiens, UniProt P11712)
[30] = biological target: T3, Non-receptor tyrosine-protein kinase TYK2 (Homo sapiens, UniProt P29597)
[31] = biological target: T3, Non-receptor tyrosine-protein kinase TYK2; remark: listed apart in the source
[32] = biological target: T4, Tyrosine-protein kinase JAK1 (Homo sapiens, UniProt P23458)
[33] = biological target: T4, Tyrosine-protein kinase JAK1; remark: listed apart in the source
[34] = biological target: T4, Tyrosine-protein kinase JAK1; remark: listed apart in the source

T4 sequence (P23458 whole entry): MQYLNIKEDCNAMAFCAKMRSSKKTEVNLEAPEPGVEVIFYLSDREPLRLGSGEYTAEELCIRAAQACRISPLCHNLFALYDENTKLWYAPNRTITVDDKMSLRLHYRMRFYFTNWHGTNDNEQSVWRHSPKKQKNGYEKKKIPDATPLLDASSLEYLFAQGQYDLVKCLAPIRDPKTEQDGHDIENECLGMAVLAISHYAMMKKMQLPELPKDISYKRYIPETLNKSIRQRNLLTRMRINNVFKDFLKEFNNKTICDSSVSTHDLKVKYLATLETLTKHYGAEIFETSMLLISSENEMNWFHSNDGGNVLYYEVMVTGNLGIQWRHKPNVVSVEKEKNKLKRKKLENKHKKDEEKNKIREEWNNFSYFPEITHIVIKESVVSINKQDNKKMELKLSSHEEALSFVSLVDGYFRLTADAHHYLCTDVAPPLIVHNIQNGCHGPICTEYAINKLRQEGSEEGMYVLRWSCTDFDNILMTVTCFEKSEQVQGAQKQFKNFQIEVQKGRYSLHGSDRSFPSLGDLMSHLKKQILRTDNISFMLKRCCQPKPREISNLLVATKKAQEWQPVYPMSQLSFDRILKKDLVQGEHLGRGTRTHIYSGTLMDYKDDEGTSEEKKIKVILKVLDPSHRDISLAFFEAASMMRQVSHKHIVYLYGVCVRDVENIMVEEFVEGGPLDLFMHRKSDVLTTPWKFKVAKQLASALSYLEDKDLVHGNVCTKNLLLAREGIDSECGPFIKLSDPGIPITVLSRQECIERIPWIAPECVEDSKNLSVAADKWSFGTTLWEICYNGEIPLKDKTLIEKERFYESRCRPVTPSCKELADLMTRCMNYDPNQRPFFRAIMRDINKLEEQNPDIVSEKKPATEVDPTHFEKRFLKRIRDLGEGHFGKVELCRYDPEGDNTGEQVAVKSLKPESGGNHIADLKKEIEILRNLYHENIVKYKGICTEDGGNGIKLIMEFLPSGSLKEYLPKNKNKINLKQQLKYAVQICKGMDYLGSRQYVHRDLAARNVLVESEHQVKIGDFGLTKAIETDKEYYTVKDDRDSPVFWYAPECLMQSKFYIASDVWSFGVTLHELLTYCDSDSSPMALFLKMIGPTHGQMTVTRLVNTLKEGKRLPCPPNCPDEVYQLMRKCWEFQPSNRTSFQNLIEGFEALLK
T3 sequence (P29597 whole entry): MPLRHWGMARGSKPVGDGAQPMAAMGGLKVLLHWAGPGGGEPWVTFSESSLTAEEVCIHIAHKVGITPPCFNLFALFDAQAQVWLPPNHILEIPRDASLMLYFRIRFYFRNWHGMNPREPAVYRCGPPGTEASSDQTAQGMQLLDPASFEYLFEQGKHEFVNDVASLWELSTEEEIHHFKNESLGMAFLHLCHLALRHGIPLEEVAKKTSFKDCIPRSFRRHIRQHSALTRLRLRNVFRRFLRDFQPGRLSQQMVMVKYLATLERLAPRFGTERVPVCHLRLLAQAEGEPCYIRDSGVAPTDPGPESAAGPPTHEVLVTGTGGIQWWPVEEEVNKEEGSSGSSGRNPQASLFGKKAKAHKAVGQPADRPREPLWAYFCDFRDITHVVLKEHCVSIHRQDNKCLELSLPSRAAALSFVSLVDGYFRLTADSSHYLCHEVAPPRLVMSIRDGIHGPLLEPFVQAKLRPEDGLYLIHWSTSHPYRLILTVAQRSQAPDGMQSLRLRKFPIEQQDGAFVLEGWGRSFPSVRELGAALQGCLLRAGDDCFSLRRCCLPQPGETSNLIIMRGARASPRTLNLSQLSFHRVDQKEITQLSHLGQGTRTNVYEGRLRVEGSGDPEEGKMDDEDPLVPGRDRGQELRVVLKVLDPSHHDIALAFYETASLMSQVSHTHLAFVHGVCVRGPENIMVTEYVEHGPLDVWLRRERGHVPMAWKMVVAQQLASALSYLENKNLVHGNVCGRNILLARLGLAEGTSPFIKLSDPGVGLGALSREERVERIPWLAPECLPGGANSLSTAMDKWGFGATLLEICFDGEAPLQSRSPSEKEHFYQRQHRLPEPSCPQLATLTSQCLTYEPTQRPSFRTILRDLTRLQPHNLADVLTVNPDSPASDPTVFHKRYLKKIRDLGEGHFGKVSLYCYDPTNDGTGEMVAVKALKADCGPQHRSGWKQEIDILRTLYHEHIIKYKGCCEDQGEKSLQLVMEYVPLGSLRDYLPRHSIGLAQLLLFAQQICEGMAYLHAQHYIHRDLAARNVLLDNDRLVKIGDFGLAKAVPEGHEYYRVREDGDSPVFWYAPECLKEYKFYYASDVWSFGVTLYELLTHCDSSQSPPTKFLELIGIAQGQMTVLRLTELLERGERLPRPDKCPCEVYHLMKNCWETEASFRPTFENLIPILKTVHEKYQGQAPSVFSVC
T1 sequence (P08684 whole entry): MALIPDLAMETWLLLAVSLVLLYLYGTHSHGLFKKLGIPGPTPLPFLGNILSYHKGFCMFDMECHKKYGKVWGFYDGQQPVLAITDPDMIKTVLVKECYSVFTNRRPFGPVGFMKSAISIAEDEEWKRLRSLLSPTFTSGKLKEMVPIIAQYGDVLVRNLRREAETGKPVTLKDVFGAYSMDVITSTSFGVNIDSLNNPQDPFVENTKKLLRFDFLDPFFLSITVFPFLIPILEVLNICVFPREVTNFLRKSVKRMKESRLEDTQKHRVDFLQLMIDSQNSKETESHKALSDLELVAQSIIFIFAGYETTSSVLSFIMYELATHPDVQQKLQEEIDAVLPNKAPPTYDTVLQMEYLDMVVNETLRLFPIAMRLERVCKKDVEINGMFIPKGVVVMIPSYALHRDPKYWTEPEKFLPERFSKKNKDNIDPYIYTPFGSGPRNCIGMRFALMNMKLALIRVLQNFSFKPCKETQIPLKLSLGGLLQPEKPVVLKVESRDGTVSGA
Chain of Cytochrome P450 2D6 (P10635 whole entry): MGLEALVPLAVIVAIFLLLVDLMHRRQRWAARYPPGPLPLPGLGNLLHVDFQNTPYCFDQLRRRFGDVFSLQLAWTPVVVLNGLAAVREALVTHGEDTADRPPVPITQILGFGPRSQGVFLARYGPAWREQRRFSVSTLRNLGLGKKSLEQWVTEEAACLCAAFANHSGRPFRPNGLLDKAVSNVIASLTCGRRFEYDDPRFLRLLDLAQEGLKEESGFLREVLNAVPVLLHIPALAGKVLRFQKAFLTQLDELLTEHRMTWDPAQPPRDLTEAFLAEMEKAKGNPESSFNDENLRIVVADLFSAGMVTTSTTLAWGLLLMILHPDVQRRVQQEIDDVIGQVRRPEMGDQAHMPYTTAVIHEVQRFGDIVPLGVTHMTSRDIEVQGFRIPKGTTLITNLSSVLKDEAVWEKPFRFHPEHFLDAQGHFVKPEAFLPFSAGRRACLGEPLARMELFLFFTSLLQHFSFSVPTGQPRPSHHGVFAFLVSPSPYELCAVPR
Chain of Cytochrome P450 2C9 (P11712 whole entry): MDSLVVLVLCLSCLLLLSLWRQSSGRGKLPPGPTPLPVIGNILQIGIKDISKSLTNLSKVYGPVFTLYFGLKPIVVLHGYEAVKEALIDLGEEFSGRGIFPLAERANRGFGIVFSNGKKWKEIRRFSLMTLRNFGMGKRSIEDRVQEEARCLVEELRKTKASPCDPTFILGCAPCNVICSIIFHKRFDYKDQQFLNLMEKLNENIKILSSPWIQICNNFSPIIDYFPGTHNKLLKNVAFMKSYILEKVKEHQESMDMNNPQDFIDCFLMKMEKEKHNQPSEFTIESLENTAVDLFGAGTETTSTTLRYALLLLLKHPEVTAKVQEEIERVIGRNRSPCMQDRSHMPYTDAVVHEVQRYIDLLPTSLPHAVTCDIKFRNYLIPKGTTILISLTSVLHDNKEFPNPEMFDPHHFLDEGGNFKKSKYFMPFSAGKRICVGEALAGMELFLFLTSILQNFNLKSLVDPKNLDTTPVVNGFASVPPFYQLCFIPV
Chain of Tyrosine-protein kinase JAK3 (P52333 whole entry): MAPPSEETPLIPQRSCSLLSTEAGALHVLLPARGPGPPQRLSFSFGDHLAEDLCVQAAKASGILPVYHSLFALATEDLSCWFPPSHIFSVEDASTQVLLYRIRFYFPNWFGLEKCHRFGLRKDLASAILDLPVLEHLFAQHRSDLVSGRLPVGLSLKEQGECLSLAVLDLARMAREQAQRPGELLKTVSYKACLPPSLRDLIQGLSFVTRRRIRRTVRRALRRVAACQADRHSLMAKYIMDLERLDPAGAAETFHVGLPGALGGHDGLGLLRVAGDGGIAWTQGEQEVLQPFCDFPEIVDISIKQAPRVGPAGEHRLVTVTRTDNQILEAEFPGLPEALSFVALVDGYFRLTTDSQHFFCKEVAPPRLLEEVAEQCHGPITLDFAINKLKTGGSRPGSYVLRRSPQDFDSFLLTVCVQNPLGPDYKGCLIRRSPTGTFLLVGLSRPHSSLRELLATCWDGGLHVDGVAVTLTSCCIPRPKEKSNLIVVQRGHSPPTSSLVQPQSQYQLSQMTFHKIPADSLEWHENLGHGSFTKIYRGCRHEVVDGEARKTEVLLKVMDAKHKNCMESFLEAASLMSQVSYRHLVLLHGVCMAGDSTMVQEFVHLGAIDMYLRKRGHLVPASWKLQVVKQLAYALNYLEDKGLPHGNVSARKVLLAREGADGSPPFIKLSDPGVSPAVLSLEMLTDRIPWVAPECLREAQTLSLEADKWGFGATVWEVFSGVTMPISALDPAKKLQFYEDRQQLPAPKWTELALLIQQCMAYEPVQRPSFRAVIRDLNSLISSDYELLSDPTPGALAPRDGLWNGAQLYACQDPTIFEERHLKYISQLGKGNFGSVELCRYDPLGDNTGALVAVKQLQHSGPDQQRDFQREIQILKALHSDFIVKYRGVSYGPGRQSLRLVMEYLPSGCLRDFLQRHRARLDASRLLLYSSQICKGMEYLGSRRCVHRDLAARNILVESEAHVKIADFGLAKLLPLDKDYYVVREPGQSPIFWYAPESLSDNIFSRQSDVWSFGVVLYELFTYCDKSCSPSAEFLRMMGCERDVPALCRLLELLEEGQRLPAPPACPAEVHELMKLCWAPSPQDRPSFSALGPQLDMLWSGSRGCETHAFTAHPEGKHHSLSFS

IC50 [1]: > 10 µM
IC50 [2]: > 10 µM
IC50 [3]: 8.8 µM
Ki [4]: 5.9 nM
F [5]: 183%
bioavailability [6]: 49%
Cmax [7]: 2500 nM
AUC [8]: 11.2 µM·h
AUC [9]: 1.3 µM·h
half-life [10]: 108 min
half-life [11]: 30 min
clearance [12]: 17 mL/min/kg
clearance [13]: 38 mL/min/kg
CLhep predicted [14]: 25 mL/min/kg
CLhep predicted [15]: 12 mL/min/kg
CLhep predicted [16]: 15 mL/min/kg
fraction unbound [17]: 0.3
fraction unbound [18]: 0.37
Papp B→A [19]: 4.9 ×10⁻⁶ cm/s
fraction unbound [20]: 0.37
solubility thermodynamic [21]: 130 µM (≈ 42 µg/mL)
solubility thermodynamic [22]: > 4 mM
CLhep predicted [23]: 5.2 mL/min/kg
CLhep predicted [24]: 6.8 mL/min/kg
Papp A→B [25]: 3.5 ×10⁻⁶ cm/s
Cmax [26]: 930 nM
IC50 [27]: > 10 µM
IC50 [28]: > 10 µM
IC50 [29]: > 10 µM
EC50 [30]: 100 nM
Ki [31]: 0.4 nM
EC50 [32]: 28 nM
EC50 [33]: 5.7 nM
Ki [34]: 0.1 nM
Structure (SMILES): C[C@@H](O)c1nc2cnc3[nH]ccc3c2n1[C@H]1CC[C@H](CC#N)CC1
